Series [1] relates to mftR. The conditions noted are these: cited from earlier work.
The test system of a further series is MftR D56S. In kind it is binding, Burkholderia thailandensis.
In series [2] the test system is mftR. It is filed as binding, Burkholderia thailandensis.
In the next series the test system is MftR W11F. It is filed as binding, Burkholderia thailandensis.
The subject of a further series is MftR-mftpO complex. In kind it is biochemical, Burkholderia thailandensis.
The subject of the next series is MftR-mftrO complex. It is filed as biochemical, Burkholderia thailandensis.
Series [3] deals with mftR. In kind it is binding, Burkholderia thailandensis. The conditions noted are these: read-out: K.
The target in a further series is T1, MftR WT (Burkholderia thailandensis E264, UniProt Q2SVY7 1-164).
T1 sequence: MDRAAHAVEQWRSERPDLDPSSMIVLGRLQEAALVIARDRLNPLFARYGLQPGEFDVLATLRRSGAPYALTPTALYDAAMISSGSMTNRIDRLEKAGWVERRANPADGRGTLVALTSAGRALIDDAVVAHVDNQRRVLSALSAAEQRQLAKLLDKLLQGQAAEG
The experiment in a line: EMSA. Background: A gel shift assay detects complexes by their altered migration in electrophoresis.

“And” between values parts separate entries of the source, which are not always exact repeats. Identical values can stand only once.

As to `O=c1[nH]c(=O)c2nc[nH]c2[nH]1` [xanthine], in the series on mftR [1], the “effect on DNA binding by MftR” value is on record as “inhibit DNA binding, albeit less efficiently than urate”.
In general, IC50 refers to the midpoint of a concentration-inhibition curve. A higher IC50 goes with weaker potency. As to `O=c1[nH]c(=O)c2[nH]c(=O)[nH]c2[nH]1` [urate], the “Tm of D56S” value in the series with MftR D56S is 52.3 ± 0.3 °C and 51.3 ± 0.1 °C. For the same molecule, in the series on mftR [2], the “Tm of MftR” value came to 61.3 ± 1.0 °C, the “Tm of MftR D1” value was determined as 49.2 ± 0.2 °C and the “Tm of MftR D2” value came to 58.0 ± 0.1 °C. Further, in the series with MftR W11F, the “Tm of W11F” value was 27.0 ± 0.1 °C and 28.8 ± 0.7 °C; the “increase of Tm compared to protein alone” value is approximately 4 °C. In addition, the IC50 in the series on MftR-mftpO complex is 2200 µM. In the series on MftR-mftrO complex, this molecule yielded an IC50 of 3700 ± 300 µM. The Kd on mftR [3] was 6.1 ± 2.1 µM.
As for `O=c1[nH]cnc2nc[nH]c12` [hypoxanthine], the “effect on DNA binding by MftR” value with mftR [1] is on record as “inhibit DNA binding, albeit less efficiently than urate”.

B1: mftrO (dsDNA)
DNA 1: CGTCCAAGTTATCTTGACGTAGAGACATGTCGAATC
DNA 2: GATTCGACATGTCTCTACGTCAAGATAACTTGGACG
With B1, the Kd with MftR WT came to 0.0007 ± 0.0001 µM.

B2: mftpO (dsDNA)
DNA 1: TGTCGAATCTATCTTGATGTCGAGACAATTATACGC
DNA 2: GCGTATAATTGTCTCGACATCAAGATAGATTCGACA
For B2, in the series with MftR WT, the Kd came to 0.0006 ± 0.0001 µM.
